Assay results as given in ChEMBL document CHEMBL1159206, “Synthesis and biological activity of esters in the trans-1,2-dihydroxy-1,2-dihydroacronycine series” (J Nat Prod, 1998).

Columns and labels:
L1210 = test: Cytotoxicity against mouse L1210 cells after 48 hrs by […] assay; type: functional, cell-based; settings: L1210, 48 h
P388 [1] = test: Antitumor activity against mouse P388 cells implanted in B6D2F1 mouse assessed as median survival time at 200 mg/kg, ip relative to control; type: functional; settings: route intraperitoneal
P388 [2] = test: Antitumor activity against mouse P388 cells implanted in B6D2F1 mouse assessed as median survival time at 25 mg/kg, ip relative to control; type: functional; settings: route intraperitoneal
P388 [3] = test: Antitumor activity against mouse P388 cells implanted in B6D2F1 mouse assessed as median survival time at 0.78 mg/kg, ip relative to control; type: functional; settings: route intraperitoneal
P388 [4] = test: Antitumor activity against mouse P388 cells implanted in B6D2F1 mouse assessed as median survival time at 1.56 mg/kg, ip relative to control; type: functional; settings: route intraperitoneal
P388 [5] = test: Antitumor activity against mouse P388 cells implanted in B6D2F1 mouse assessed as median survival time at 3.125 mg/kg, ip relative to control; type: functional; settings: route intraperitoneal
P388 [6] = test: Antitumor activity against mouse P388 cells implanted in B6D2F1 mouse assessed as median survival time at 6.25 mg/kg, ip relative to control; type: functional; settings: route intraperitoneal
P388 [7] = test: Antitumor activity against mouse P388 cells implanted in B6D2F1 mouse assessed as median survival time at 12.5 mg/kg, ip relative to control; type: functional; settings: route intraperitoneal

**Q.** `COc1cc2c(c3c1c(=O)c1ccccc1n3C)C(=O)C(O)(CC(C)=O)C(C)(C)O2` (racemic) was tested. Which IC50 (L1210) did it give?
**A.** 22.5 µM

**Q.** How did the IC50 (L1210) turn out when `COc1cc2c(c3c1c(=O)c1ccccc1n3C)[C@@H](O)[C@H](OC(=O)CCl)C(C)(C)O2` (racemic) was run?
**A.** 11 µM

**Q.** `COc1cc2c(c3c1c(=O)c1ccccc1n3C)C(=O)C(O)C(C)(C)O2` (racemic) was tested. Which IC50 (L1210) did it give?
**A.** 75.1 µM

**Q.** Which IC50 (L1210) does the source give for `COc1cc2c(c3c1c(=O)c1ccccc1n3C)C=CC(C)(C)O2` [ACRONINE] here?
**A.** 25 µM

**Q.** What about the T/C (P388 [1]) of the same molecule?
**A.** 125%

**Q.** `COc1cc2c(c3c1c(=O)c1ccccc1n3C)[C@@H](O)[C@H](OC(C)=O)C(C)(C)O2` (racemic) was tested. Which IC50 (L1210) did it give?
**A.** 8.8 µM

**Q.** `COc1cc2c(c3c1c(=O)c1ccccc1n3C)[C@@H](OC(C)=O)[C@@H](OC(C)=O)C(C)(C)O2` (relative stereo) was tested. Which T/C (P388 [2]) did it give?
**A.** 268%

**Q.** For `COc1cc2c(c3c1c(=O)c1ccccc1n3C)[C@@H](OC(C)=O)[C@H](OC(C)=O)C(C)(C)O2` (racemic), which IC50 (L1210) is on record?
**A.** 8.7 µM

**Q.** And the T/C (P388 [3])?
**A.** 122%

**Q.** What about the T/C (P388 [4]) of the same molecule?
**A.** 136%

**Q.** What about the T/C (P388 [5]) of the same molecule?
**A.** 155%

**Q.** And the T/C (P388 [6])?
**A.** 160%

**Q.** What about the T/C (P388 [7]) of the same molecule?
**A.** 181%

**Q.** What about the T/C (P388 [2]) of the same molecule?
**A.** 77%
